Reference: publication PMC4051630, “A Comparison of Protein Kinases Inhibitor Screening Methods Using Both Enzymatic Activity and Binding Affinity Determination” (PLoS ONE, 2014)

Assays:
Assay in all cases: Differential Scanning Fluorimetry (DSF) Tm shift
Type in all cases: binding
[1] = molecular target: T1, STK3 Catalytic Domain (Homo sapiens, UniProt Q13188); conditions: 2 µM protein, 10 µM inhibitor, average of 3 experiments, each in duplicate
T1 construct: For all of them, we expressed and purified the catalytic domain separately; His-tag; made in house; host or cells: Escherichia coli
T1 sequence (Q13188 27-278 limits assumed): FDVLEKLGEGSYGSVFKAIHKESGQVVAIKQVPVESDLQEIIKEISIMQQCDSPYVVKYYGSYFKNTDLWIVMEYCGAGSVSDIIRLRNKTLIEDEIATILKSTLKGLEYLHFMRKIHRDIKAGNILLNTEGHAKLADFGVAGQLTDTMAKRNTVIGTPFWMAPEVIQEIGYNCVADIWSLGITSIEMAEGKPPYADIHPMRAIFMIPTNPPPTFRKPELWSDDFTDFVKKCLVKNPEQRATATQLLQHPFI

[2] = molecular target: T2, AKT3 Catalytic Domain (Homo sapiens, UniProt Q9Y243); conditions: 2 µM protein, 10 µM inhibitor, average of 3 experiments, each in duplicate
T2 construct: AKT3 (Q9Y243); CD; His-tag; made in house; host or cells: Escherichia coli
T2 sequence (Q9Y243 122-479): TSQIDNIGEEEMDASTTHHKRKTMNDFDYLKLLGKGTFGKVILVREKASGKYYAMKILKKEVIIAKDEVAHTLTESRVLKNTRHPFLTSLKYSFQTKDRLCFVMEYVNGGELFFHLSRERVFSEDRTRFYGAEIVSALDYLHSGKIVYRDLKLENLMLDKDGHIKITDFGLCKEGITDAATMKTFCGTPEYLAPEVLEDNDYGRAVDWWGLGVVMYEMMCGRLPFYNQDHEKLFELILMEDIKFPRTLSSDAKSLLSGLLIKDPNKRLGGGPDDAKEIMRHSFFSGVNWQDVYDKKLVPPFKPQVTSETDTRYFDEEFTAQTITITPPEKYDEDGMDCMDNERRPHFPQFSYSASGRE

[3] = molecular target: T3, DMPK Catalytic Domain (Homo sapiens, UniProt Q09013); conditions: 2 µM protein, 10 µM inhibitor, average of 3 experiments, each in duplicate
T3 construct: For all of them, we expressed and purified the catalytic domain separately; His-tag; made in house; host or cells: Escherichia coli
T3 sequence (Q09013 71-339 limits assumed): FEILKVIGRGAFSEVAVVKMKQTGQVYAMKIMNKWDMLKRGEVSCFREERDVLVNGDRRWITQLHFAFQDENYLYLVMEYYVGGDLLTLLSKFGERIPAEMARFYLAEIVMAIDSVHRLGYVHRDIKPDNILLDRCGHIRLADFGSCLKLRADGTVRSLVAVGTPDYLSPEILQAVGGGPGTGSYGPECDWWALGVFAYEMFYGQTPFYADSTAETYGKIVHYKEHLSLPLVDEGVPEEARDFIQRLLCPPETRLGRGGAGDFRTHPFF

[4] = molecular target: T4, PAK4 Catalytic Domain (Homo sapiens, UniProt O96013); conditions: 2 µM protein, 10 µM inhibitor, average of 3 experiments, each in duplicate
T4 construct: For all of them, we expressed and purified the catalytic domain separately; His-tag; made in house; host or cells: Escherichia coli
T4 sequence (O96013 321-572 limits assumed): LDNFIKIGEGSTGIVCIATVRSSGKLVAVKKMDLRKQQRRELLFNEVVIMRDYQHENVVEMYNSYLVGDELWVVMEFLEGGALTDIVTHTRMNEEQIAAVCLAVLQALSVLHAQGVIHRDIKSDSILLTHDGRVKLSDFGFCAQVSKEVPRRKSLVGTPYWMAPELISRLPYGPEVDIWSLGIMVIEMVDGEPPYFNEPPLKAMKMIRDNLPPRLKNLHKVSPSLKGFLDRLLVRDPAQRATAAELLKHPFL

[5] = molecular target: SRC Catalytic Domain+SH2+SH3 (Homo sapiens, UniProt P12931); conditions: 2 µM protein, 10 µM inhibitor, average of 3 experiments, each in duplicate
[6] = molecular target: SRC Catalytic Domain (Homo sapiens, UniProt P12931); design: For all of them, we expressed and purified the catalytic domain separately; His-tag; made in house; host or cells: Escherichia coli; conditions: 2 µM protein, 10 µM inhibitor, average of 3 experiments, each in duplicate
[7] = molecular target: T5, FES Catalytic Domain+SH2 (Homo sapiens, UniProt P07332); conditions: 2 µM protein, 10 µM inhibitor, average of 3 experiments, each in duplicate
T5 construct: for 8, we also made a longer version containing one or more additional domains; His-tag; made in house; host or cells: Escherichia coli
T5 sequence (P07332 448-822 limits assumed): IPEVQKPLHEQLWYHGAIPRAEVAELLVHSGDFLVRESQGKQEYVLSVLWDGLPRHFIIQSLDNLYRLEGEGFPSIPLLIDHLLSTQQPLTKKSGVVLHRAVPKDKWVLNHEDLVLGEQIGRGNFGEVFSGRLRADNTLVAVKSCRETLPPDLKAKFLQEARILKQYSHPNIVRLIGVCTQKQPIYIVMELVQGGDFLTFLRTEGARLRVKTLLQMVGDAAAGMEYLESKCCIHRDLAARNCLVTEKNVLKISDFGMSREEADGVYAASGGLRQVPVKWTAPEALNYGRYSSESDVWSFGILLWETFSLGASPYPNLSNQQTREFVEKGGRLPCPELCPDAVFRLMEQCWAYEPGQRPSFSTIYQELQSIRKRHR

[8] = molecular target: T6, CDK2 + Cyclin A (Homo sapiens, UniProt P24941); conditions: CDK2 + Cyclin A; 2 µM protein, 10 µM inhibitor; average of 3 experiments, each in duplicate
T6 construct: CDK2 (P24941); 1–299; His-tag; made in house; host or cells: Escherichia coli

[9] = molecular target: T7, CHK2 Catalytic Domain (Homo sapiens, UniProt O96017); conditions: 2 µM protein, 10 µM inhibitor, average of 3 experiments, each in duplicate
T7 construct: For all of them, we expressed and purified the catalytic domain separately; His-tag; made in house; host or cells: Escherichia coli
T7 sequence (O96017 220-486 limits assumed): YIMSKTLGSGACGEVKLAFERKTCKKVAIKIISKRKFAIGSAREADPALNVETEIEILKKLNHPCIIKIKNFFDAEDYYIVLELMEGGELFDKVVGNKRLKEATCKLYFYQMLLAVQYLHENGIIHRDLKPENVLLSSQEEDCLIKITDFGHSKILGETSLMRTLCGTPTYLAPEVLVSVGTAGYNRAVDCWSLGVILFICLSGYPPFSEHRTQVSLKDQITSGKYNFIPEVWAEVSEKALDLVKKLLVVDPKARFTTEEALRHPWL

[10] = molecular target: T8, PAK4 Catalytic Domain+PBD (Homo sapiens, UniProt O96013); conditions: 2 µM protein, 10 µM inhibitor, average of 3 experiments, each in duplicate
T8 construct: for 8, we also made a longer version containing one or more additional domains; His-tag; made in house; host or cells: Escherichia coli
T8 sequence (O96013 whole entry, the tested form may be a part): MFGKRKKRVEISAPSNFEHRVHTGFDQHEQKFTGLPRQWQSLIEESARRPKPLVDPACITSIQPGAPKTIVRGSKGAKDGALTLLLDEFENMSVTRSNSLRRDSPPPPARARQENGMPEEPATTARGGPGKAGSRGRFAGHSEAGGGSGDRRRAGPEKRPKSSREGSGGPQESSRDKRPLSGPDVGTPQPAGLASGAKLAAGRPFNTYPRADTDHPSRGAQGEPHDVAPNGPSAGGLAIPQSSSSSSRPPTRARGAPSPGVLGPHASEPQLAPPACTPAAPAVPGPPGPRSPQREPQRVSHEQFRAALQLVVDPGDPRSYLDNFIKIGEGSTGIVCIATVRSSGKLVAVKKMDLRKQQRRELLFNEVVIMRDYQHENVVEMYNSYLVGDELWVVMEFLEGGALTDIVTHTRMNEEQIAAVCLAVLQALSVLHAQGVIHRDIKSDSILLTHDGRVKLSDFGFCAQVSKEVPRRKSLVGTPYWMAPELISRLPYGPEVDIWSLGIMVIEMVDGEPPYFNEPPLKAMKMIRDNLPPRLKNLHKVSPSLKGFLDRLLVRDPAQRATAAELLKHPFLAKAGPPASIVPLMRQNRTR

[11] = molecular target: T9, FES Catalytic Domain (Homo sapiens, UniProt P07332); conditions: 2 µM protein, 10 µM inhibitor, average of 3 experiments, each in duplicate
T9 construct: For all of them, we expressed and purified the catalytic domain separately; His-tag; made in house; host or cells: Escherichia coli
T9 sequence (P07332 561-822 limits assumed): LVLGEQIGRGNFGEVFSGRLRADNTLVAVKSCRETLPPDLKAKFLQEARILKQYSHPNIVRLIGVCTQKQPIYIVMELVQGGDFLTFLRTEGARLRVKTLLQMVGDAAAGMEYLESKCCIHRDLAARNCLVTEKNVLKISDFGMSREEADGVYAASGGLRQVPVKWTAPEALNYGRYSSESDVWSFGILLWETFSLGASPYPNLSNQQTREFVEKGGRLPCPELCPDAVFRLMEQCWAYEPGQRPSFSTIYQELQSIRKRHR

[12] = molecular target: T10, STK3 Catalytic domain+SARAH (Homo sapiens, UniProt Q13188); conditions: 2 µM protein, 10 µM inhibitor, average of 3 experiments, each in duplicate
T10 construct: for 8, we also made a longer version containing one or more additional domains; His-tag; made in house; host or cells: Escherichia coli
T10 sequence (Q13188 1-491): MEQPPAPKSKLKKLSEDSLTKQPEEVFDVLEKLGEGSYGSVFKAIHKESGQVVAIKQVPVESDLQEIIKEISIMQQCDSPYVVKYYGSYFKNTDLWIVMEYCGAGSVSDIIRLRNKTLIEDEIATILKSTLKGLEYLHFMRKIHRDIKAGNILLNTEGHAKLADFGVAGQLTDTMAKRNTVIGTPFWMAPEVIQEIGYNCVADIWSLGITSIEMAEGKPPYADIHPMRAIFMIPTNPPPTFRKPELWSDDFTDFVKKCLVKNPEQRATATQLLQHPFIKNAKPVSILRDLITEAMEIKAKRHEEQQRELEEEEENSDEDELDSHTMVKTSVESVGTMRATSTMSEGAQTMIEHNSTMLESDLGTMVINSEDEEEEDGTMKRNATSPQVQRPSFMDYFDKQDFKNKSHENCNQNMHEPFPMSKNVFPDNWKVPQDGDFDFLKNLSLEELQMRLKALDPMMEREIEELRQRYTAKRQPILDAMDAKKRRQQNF

[13] = molecular target: T11, CDK2 + Cyclin E (Homo sapiens, UniProt P24941); conditions: CDK2 + Cyclin E; 2 µM protein, 10 µM inhibitor; average of 3 experiments, each in duplicate
T11 construct: CDK2 (P24941); 1–299; His-tag; made in house; host or cells: Escherichia coli

[14] = molecular target: T12, PAK7 Catalytic Domain (Homo sapiens, UniProt Q9P286); conditions: 2 µM protein, 10 µM inhibitor, average of 3 experiments, each in duplicate
T12 construct: For all of them, we expressed and purified the catalytic domain separately; His-tag; made in house; host or cells: Escherichia coli
T12 sequence (Q9P286 449-700 limits assumed): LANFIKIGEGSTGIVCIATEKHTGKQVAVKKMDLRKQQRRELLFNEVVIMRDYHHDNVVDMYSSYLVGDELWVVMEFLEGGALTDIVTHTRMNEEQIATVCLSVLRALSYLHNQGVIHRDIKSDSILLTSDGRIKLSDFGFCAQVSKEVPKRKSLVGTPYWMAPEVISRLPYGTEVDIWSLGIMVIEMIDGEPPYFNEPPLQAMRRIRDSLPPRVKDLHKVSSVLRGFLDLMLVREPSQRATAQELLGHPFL

[15] = molecular target: T13, FAK2 Catalytic Domain (Homo sapiens, UniProt Q14289); conditions: 2 µM protein, 10 µM inhibitor, average of 3 experiments, each in duplicate
T13 construct: For all of them, we expressed and purified the catalytic domain separately; His-tag; made in house; host or cells: Escherichia coli
T13 sequence (Q14289 425-683 limits assumed): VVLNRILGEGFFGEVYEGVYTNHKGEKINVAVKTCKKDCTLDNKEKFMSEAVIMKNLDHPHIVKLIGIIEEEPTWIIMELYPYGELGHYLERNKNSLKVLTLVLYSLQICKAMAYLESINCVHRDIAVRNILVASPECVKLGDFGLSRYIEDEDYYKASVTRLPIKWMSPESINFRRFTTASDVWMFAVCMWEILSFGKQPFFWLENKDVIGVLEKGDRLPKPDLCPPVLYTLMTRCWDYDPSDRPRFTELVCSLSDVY

| Compound | Melting temperature (Tm) shift [1] [degrees Celcius] | Melting temperature (Tm) shift [2] [degrees Celcius] | Melting temperature (Tm) shift [3] [degrees Celcius] | Melting temperature (Tm) shift [4] [degrees Celcius] | Melting temperature (Tm) shift [5] [degrees Celcius] | Melting temperature (Tm) shift [6] [degrees Celcius] | Melting temperature (Tm) shift [7] [degrees Celcius] | Melting temperature (Tm) shift [8] [degrees Celcius] | Melting temperature (Tm) shift [9] [degrees Celcius] | Melting temperature (Tm) shift [10] [degrees Celcius] | Melting temperature (Tm) shift [11] [degrees Celcius] | Melting temperature (Tm) shift [12] [degrees Celcius] | Melting temperature (Tm) shift [13] [degrees Celcius] | Melting temperature (Tm) shift [14] [degrees Celcius] | Melting temperature (Tm) shift [15] [degrees Celcius] |
| --- | --- | --- | --- | --- | --- | --- | --- | --- | --- | --- | --- | --- | --- | --- | --- |
| COc1cc2ncnc(Nc3ccc(OCc4ccccc4)cc3)c2cc1OC [EGFR/ErbB-2 Inhibitor] | 0.2 | 0.1 | 0.3 | 0.3 | 0.8 | 1.4 | 0.1 | 0.0 | 11.2 | 0.0 | 0.0 | 0.2 | 0.1 | 0.0 | – |
| O=C(c1cc2cc(O)ccc2[nH]1)c1cc2cc(O)ccc2[nH]1 [Flt-3 Inhibitor II] | 2.3 | 0.1 | – | 0.9 | 1.3 | 1.3 | 0.0 | 0.9 | 2.2 | 0.9 | 1.0 | 2.3 | 0.2 | 0.6 | 0.4 |
| COc1ccc2c(c1)c(C1=C(c3c[nH]c4ccccc34)C(=O)NC1=O)cn2CCCN(C)C [Gö 6983] | 0.2 | 0.0 | 1.9 | 0.0 | – | 0.2 | 0.7 | 0.4 | 5.6 | – | 0.9 | 0.7 | 0.1 | 0.1 | – |
| O=C1Nc2ccccc2C1=C1Nc2ccccc2C1=NOCCC(O)CO (centres unmarked) [Indirubin Derivative E804] | 5.2 | 0.7 | 0.6 | 1.9 | 2.8 | 3.1 | 1.0 | – | 2.2 | 2.1 | 1.1 | 3.5 | 1.1 | 1.7 | 2.8 |
| COc1cc(Nc2ncc3ccn(-c4cccc(CCC#N)c4)c3n2)cc(OC)c1OC [Keratinocyte Differentiation Inducer] | 3.6 | 0.0 | 3.2 | 5.5 | 1.8 | 3.0 | 3.4 | 4.3 | 8.3 | 7.3 | 5.5 | 4.3 | 2.3 | 0.0 | – |
| O=C1NC(=O)c2c1c1c3ccccc3n3c1c1c2c2ccccc2n1C1CCC3O1 [SB 218078] | 14.2 | 16.8 | 15.4 | 2.5 | 10.3 | 1.9 | – | – | 24.9 | – | 16.0 | 0.6 | 0.0 | 0.5 | 19.6 |
| Cc1cc(C=C2C(=O)C=CC2=O)cc(C)c1O [TX-1918] | 0.1 | 4.5 | – | – | – | 0.0 | – | 0.4 | 2.6 | 1.1 | – | – | 0.4 | – | 0.5 |
| Indirubin-3′ -monoxime [Indirubin-3ʹ′-monoxime] | 2.4 | 0.2 | 0.6 | 0.8 | 0.4 | 0.2 | 0.1 | – | 1.1 | 1.2 | 0.2 | 1.0 | 0.1 | 0.2 | – |
| VEGF Receptor 2 Kinase Inhibitor I | – | 0.3 | 0.7 | 0.6 | 0.0 | 0.0 | 0.1 | – | 1.1 | 0.4 | 0.3 | 0.9 | 0.2 | – | 0.5 |
